The source of these data is patent US11040056B2, “Benzimidazoles that enhance the activity of oligonucleotides” (The University of North Carolina at Chapel Hill, priority 2018, dated 2021).

Data set [1] deals with P-glycoprotein (Pgp) expression in NIH-3T3-MDR cells. Description: ASO mediated inhibition of MDR1 gene expression (Pgp by flow cytometry). The data set is classed as cell-based, mouse. The settings on record: 100 nM anti-MDR1 ASO 16 h; 10 μM UNC2383 2 h where used; 48 h. Here is the method:
FIG. 4. Effects with ASOs. Reduction of Pgp expression. NIH 3T3-MDR cells were incubated with 100 nM anti-MDR1 ASO or a mismatched (MM) control for 16 h in DMEM+1% FBS. Cells were rinsed and then treated with 10 μM UNC2383 for 2 h. The compound was removed, and the cells further incubated for 48 h. Expression of Pgp on the cell surface was determined by treating cells with Alexa 488 labeled anti-Pgp monoclonal antibody and binding quantitated by flow cytometry (PE(A)=units of fluorescence intensity). Treatment with ASO complexed with Lipofectamine 2000 (L2K) was a positive control. Y axis, cell counts; X axis, Alexa 488 fluorescence. […] Means±SE, N=3.
We also tested UNC2383 for its ability to affect ASOs rather than SSOs. The ASO was designed to inhibit expression of the MDR1 gene and its product the P-glycoprotein multidrug transporter. […] Cell surface expression of P-glycoprotein was monitored using an Alexa 488 labeled anti-Pgp monoclonal antibody and flow cytometry. […]
SSO-mediated luciferase induction assays were conducted as previously described. (18) In short, HeLaLuc705 cells in 24 well culture plates were preincubated with SSO623 followed by brief treatment with the small molecule; at intervals thereafter, luciferase activity and protein content were determined. […] Cytotoxicity of 2383 was monitored using the Alamar Blue assay. […]

Data set [2] is described as follows: In vivo toxicity parameters (cardiac blood samples).
Description: All animal procedures were conducted in compliance with guidelines of the UNC Laboratory Animal Medicine Department and with federal guidelines. […] (20, 32) EGFP654 mice were administered 35 mg/kg of SSO623 or mismatched oligonucleotide in buffer by intraperitoneal injection on two consecutive days. One day later, mice received either 5 mg/kg of UNC2383 in a 1:1 DMSO/PEG400 solution or only the diluent, via intraperitoneal injection. […] After 24 h, the second cohort was euthanized and tissue and cardiac blood samples were obtained. […] (31) Blood samples were analyzed by the UNC Animal Clinical Chemistry Core facility.
Data set [3] relates to EGFP654 transgenic mouse. Description: In vivo EGFP splice correction in EGFP654 transgenic mice. Here is the method:
FIG. 10A-10E. In vivo effects-RNA. EGFP654 mice were treated with SSO623 or a mismatched control (MM) and then received UNC2383 or diluent (N=3). RT-PCR with gel analysis was used to detect correctly or incorrectly spliced EGFP mRNA. The gel images were quantitated using Fiji software. Gel image for liver FIG. 10A. The lower band (87 bp) is correctly spliced EGFP mRNA, while the upper band (160 bp) is uncorrected. FIG. 10B-10E Quantitation of splice correction in liver FIG. 10B, kidney FIG. 10C, intestine FIG. 10D, and lung FIG. 10E. The bars indicate the ratio of correctly spliced to incorrectly spliced mRNA×100. […] EGFP immunostaining was performed in liver, lung, and intestine tissue and analyzed by confocal microscopy. […]
Effects of UNC2383 on endosome stability were monitored in cell culture models as previously described. […] Live cells were imaged by fluorescence confocal microscopy with or without treatment with UNC2383 or its analogs. […] Co-localization of TAMRA labeled SSO 623 with marker proteins was quantitated using Fiji (ImageJ) software and expressed as a Manders' Correlation Coefficient. […] EGFP protein expression was monitored by immunostaining with an anti-EGFP antibody (Abcam) using techniques previously described. […]
PCR techniques. […] The PCR products were separated on 1.5% agarose gels and bands were visualized by staining with Gel RedTMand quantitated using a Biorad ChemiDoc XRS+ scanner. […]

Where [4] appears, read: 24 h after administration, means +/− SE, N = 4.

With `O=C(Nc1nc2ccccc2n1CCN1CCCC1)c1cc2cc(Cl)ccc2o1` [UNC2383], the “Pgp expression on the cell surface” value in data set [1] is recorded as “substantial reduction”. Besides, the toxicity in vivo result in data set [2] (5 mg/kg i.p.) is “limited toxicity”. Further, in data set [2] (setting [4]), the ALT is 106 +/− 32 U/L, the AST is listed as 76 +/− 15 U/L, the BUN came to 20 ± 4 mg/dL and the Hb was found to be 11.8 ± 0.4 g/dL. Also, in data set [2] (setting [4]), the Platelets is on record as 711 +/− 85 × 10^3/ul. The “correctly spliced EGFP message (RT-PCR)” value in data set [3] (35 mg/kg SSO623 i.p. two days, then 5 mg/kg UNC2383 i.p., liver, kidney, lung, intestine, 5 h) is “increase in correctly spliced EGFP message”. For the same compound, the “EGFP protein expression (immunostaining)” value in data set [3] (SSO623 plus UNC2383, bronchi, intestinal crypts, 24 h) is “expressed EGFP”.
